# Assay results reported in patent US4125610A, “Antibacterial compositions” (priority 1977, dated 1978).
# Read-outs that look alike come from different tables or passages of the source.
# Legend:
# [1] = system: experimental tuberculosis; details: cited from earlier work
# [2] = system: Ent. cloacae; test: microbe, parasite or virus in culture; type: cell-based; details: Enterobacter cloacae
# Experimental: (§1) The geometric mean MIC's were determined from MIC's obtained in two separate tests of each of the strains of Staphylococcus and Proteus, and three separate tests for each of the other organisms.
# [3] = system: E. coli; test: microbe, parasite or virus in culture; type: cell-based; details: Escherichia coli
# Experimental: as §1
# [4] = system: Kl. pneumoniae; test: microbe, parasite or virus in culture; type: cell-based; details: Klebsiella pneumoniae
# Experimental: as §1
# [5] = system: Pr. rettgeri; test: microbe, parasite or virus in culture; type: cell-based; details: Providencia rettgeri
# Experimental: as §1
# [6] = system: Pr. morganii; test: microbe, parasite or virus in culture; type: cell-based; details: Morganella morganii
# Experimental: as §1
# [7] = system: Staph. aureus; test: microbe, parasite or virus in culture; type: cell-based; details: Staphylococcus aureus, read-out: Geometric Mean MIC
# Experimental: as §1
# [8] = system: Pr. vulgaris; test: microbe, parasite or virus in culture; type: cell-based; details: for MIC: Proteus vulgaris
# Experimental: as §1
# [9] = system: Pr. mirabilis; test: microbe, parasite or virus in culture; type: cell-based; details: Proteus mirabilis
# Experimental: as §1
# [10] = system: Histoplasma capsulatum; details: mouse, in vivo, iv; cited from earlier work
# [11] = system: S. pyogenes A9604; test: animal or person; type: in vivo, mice; details: Streptococcus pyogenes, A9604, in Mus musculus, po, read-out: PD50 /treatment
# [12] = system: experimental tuberculosis; details: cited from earlier work; remark: listed apart in the source
# [13] = system: Ent. cloacae; test: microbe, parasite or virus in culture; type: cell-based; details: Enterobacter cloacae; remark: listed apart in the source
# Experimental: (§2) *The MIC's were determined by the twofold broth dilution method following
# (§3) overnight incubation at 37° C in Meuller-Hinton Broth containing 2
# (§4) lysed defibrinated horse blood and using 10^-4 dilutions of overnight
# (§5) broth cultures (10^-3 dilutions of Staph. aureus strains A9606 and
# (§6) A15097) as inocula at the rate of 0.5 ml of inoculum per 0.5 ml of […]
# [14] = system: E. coli; test: microbe, parasite or virus in culture; type: cell-based; details: Escherichia coli; remark: listed apart in the source
# Experimental: as §2, §3, §4, §5, §6
# [15] = system: Kl. pneumoniae; test: microbe, parasite or virus in culture; type: cell-based; details: Klebsiella pneumoniae; remark: listed apart in the source
# Experimental: as §2, §3, §4, §5, §6
# [16] = system: Staph. aureus; test: microbe, parasite or virus in culture; type: cell-based
# Experimental: as §2, §3, §4, §5, §6
# [17] = system: Pr. mirabilis; test: microbe, parasite or virus in culture; type: cell-based
# Experimental: as §2, §3, §4, §5, §6
# [18] = system: Ps. aeruginosa; test: microbe, parasite or virus in culture; type: cell-based; details: Pseudomonas aeruginosa
# Experimental: as §2, §3, §4, §5, §6
# [19] = system: E. coli A15119; test: animal or person; type: in vivo, mice; details: Escherichia coli, A15119, in Mus musculus, po, read-out: PD50 /treatment
# [20] = system: S. typhosa; details: in vivo; cited from earlier work
# [21] = system: S. aureus A9537; test: animal or person; type: in vivo, mice; details: Staphylococcus aureus, A9537, in Mus musculus, po
# [22] = system: Plasmodium berghei; details: in vivo; cited from earlier work
# [23] = system: Ps. fluorescens; details: in vivo; cited from earlier work
# [24] = laboratory animals, cited from earlier work
# [25] = system: P. mirabilis A9900; test: animal or person; type: in vivo, mice; details: Proteus mirabilis, A9900, in Mus musculus, po
# [26] = system: a variety of bacterial species; details: cited from earlier work
# [27] = system: K. pneumoniae A9977; test: animal or person; type: in vivo, mice; details: Klebsiella pneumoniae, A9977, in Mus musculus, po, read-out: PD50 /treatment
# [28] = system: A20119; test: Antibacterial activity, MIC by twofold broth dilution (Table 1), organism name not given; type: cell-based
# Experimental: as §2, §3, §4, §5, §6
smiles,measurement,setting,value
"Nc1ccc(P(=O)(O)O)cc1 [P, p-aminophenylphosphonic acid]",tubercularstatic activity in vitro,[1],good tubercularstatic activity in vitro
same,MIC,"[2]; read-out: Geometric Mean MIC, 1 strain (1st Ent. cloacae line)",8 µg/mL
same,MIC,"[2]; read-out: Geometric Mean MIC, 1 strain (3rd Ent. cloacae line)",> 125 µg/mL
same,MIC,"[2]; read-out: Geometric Mean MIC, 2 strains (4th Ent. cloacae line)",63 µg/mL
same,MIC,"[2]; read-out: Geometric Mean MIC, 3 strains (2nd Ent. cloacae line)",20 µg/mL
same,MIC,"[3]; read-out: Geometric Mean MIC, 1 strain (1st E. coli line)",6.4 µg/mL
same,MIC,"[3]; read-out: Geometric Mean MIC, 2 strains (2nd E. coli line)",18 µg/mL
same,MIC,"[3]; read-out: Geometric Mean MIC, 2 strains (3rd E. coli line)",> 125 µg/mL
same,MIC,"[3]; read-out: Geometric Mean MIC, 4 strains (4th E. coli line)",20 µg/mL
same,MIC,"[4]; read-out: Geometric Mean MIC, 1 strain (2nd Kl. pneumoniae line)",40 µg/mL
same,MIC,"[4]; read-out: Geometric Mean MIC, 1 strain (4th Kl. pneumoniae line)",> 125 µg/mL
same,MIC,"[4]; read-out: Geometric Mean MIC, 2 strains (3rd Kl. pneumoniae line)",40 µg/mL
same,MIC,"[4]; read-out: Geometric Mean MIC, 5 strains (1st Kl. pneumoniae line)",18 µg/mL
same,MIC,"[5]; read-out: Geometric Mean MIC, 1 strain (1st Pr. rettgeri line)",0.5 µg/mL
same,MIC,"[5]; read-out: Geometric Mean MIC, 1 strain (2nd Pr. rettgeri line)",> 125 µg/mL
same,MIC,"[6]; read-out: Geometric Mean MIC, 1 strain (1st Pr. morganii line)",> 125 µg/mL
same,MIC,"[6]; read-out: Geometric Mean MIC, 2 strains (2nd Pr. morganii line)",11.3 µg/mL
same,MIC,[7],> 109 µg/mL
same,MIC,"[8]; read-out: Geometric Mean MIC, 1 strain (first listed Pr. vulgaris)",> 125 µg/mL
same,MIC,"[8]; read-out: Geometric Mean MIC, 2 strains (2nd Pr. vulgaris line)",8 µg/mL
same,component in the 16:1 mixture at its MIC as % of its individual MIC,[8]; first listed strain of Pr. vulgaris,< 3.0%
same,amount of component in 4 μg/ml of the 16:1 mixture,"[8]; first listed strain of Pr. vulgaris, 16:1 mixture at its MIC",3.76 µg/mL
same,MIC,"[9]; read-out: Geometric Mean MIC, 1 strain (3rd Pr. mirabilis line)",11.3 µg/mL
same,MIC,"[9]; read-out: Geometric Mean MIC, 1 strain (4th Pr. mirabilis line)",16 µg/mL
same,MIC,"[9]; read-out: Geometric Mean MIC, 2 strains (2nd Pr. mirabilis line)",> 105 µg/mL
same,MIC,"[9]; read-out: Geometric Mean MIC, 4 strains (1st Pr. mirabilis line)",7.3 µg/mL
same,protective effect,[10],some protective effect
same,ED50,[11],> 400 mg/kg
same,effect in vivo,[12],no effect in vivo
same,MIC,[13]; strain A-9656,> 125 µg/mL
same,MIC,[13]; strain A-9657,63 µg/mL
same,MIC,[13]; strain A-9659,> 125 µg/mL
same,MIC,[14],> 125 µg/mL
same,MIC,[14]; strain A15119,> 125 µg/mL
same,MIC,[14]; strain A-9671,> 125 µg/mL
same,MIC,[15],> 125 µg/mL
same,MIC,[15]; strain A15130,> 125 µg/mL
same,MIC,[15]; strain A20468,> 125 µg/mL
same,MIC,[16]; Staphylococcus aureus,> 125 µg/mL
same,MIC,"[16]; strain A15097, 10^-3 dilution inoculum",> 125 µg/mL
same,MIC,"[16]; strain A-9606, 10^-3 dilution inoculum",> 125 µg/mL
same,MIC,[17]; Proteus mirabilis,> 125 µg/mL
same,MIC,"[17]; Proteus mirabilis, strain A-9696",> 125 µg/mL
same,MIC,[18]; strain A15151,1 µg/mL
same,MIC,[18]; strain A20126,16 µg/mL
same,MIC,[18]; strain A20227,1 µg/mL
same,MIC,[18]; strain A20229,63 µg/mL
same,MIC,[18]; strain A20543,16 µg/mL
same,MIC,[18]; strain A20574,1 µg/mL
same,MIC,[18]; strain A20602,125 µg/mL
same,MIC,[18]; strain A-9843a,4 µg/mL
same,MIC,[18]; strain A-9925,16 µg/mL
same,ED50,[19]; 3 h,> 400 mg/kg
same,ED50,[19],> 400 mg/kg
same,efficacy in infected mice,[20],effective in vivo
same,ED50,[21]; read-out: PD50 /treatment,> 400 mg/kg
same,ED50,"[21]; read-out: PD50 /treatment, oral, mice, challenge 1×10^5, 0 and 4 hr post-challenge",> 100 mg/kg
same,efficacy in infected mice,[22],effective in vivo
same,efficacy in infected mice,[23],effective in vivo
same,absorption,[24]; blood level studies,poor absorption
same,toxicity,[24],low toxicity
same,ED50,"[25]; read-out: PD50 /treatment, oral, mice, challenge 6×10^6, 0 and 2 hr post-challenge",> 200 mg/kg
same,ED50,"[25]; read-out: PD50 /treatment, oral, mice, challenge 8×10^6, 0 and 2 hr post-challenge (1st P. mirabilis line)",> 800 mg/kg
same,ED50,"[25]; read-out: PD50 /treatment, oral, mice, challenge 8×10^6, 0 and 2 hr post-challenge (3rd P. mirabilis line)",> 200 mg/kg
same,in vitro activity compared with sulfathiazole,[26]; molar basis,approached that of sulfathiazole
same,in vitro activity,[26]; relative to the compounds tested,generally the most active of the compounds tested
same,ED50,[27]; 54 h,> 400 mg/kg
same,ED50,[27],> 400 mg/kg
same,MIC,[28],> 125 µg/mL
"COc1cc(Cc2cnc(N)nc2N)cc(OC)c1OC [T, 2,4-diamino-5-(3',4',5'-trimethoxybenzyl)pyrimidine]",MIC,[7],0.5 µg/mL
same,Geometric Mean MIC,[8],0.6 µg/mL
same,amount of component in 4 μg/ml of the 16:1 mixture,[8],0.235 µg/mL
same,component in the 16:1 mixture at its MIC as % of its individual MIC,[8],23%
same,MIC,[8]; read-out: Geometric Mean MIC,1 µg/mL
same,ED50,[11],> 400 mg/kg
same,MIC,[16]; Staphylococcus aureus,0.25 µg/mL
same,MIC,[17],4 µg/mL
same,MIC,[17]; Proteus mirabilis,2 µg/mL
same,ED50,[19]; 3 h,200 mg/kg
same,ED50,[19],262 mg/kg
same,ED50,[25]; read-out: PD50 /treatment,> 200 mg/kg
same,ED50,[27]; 54 h,348 mg/kg
same,MIC,[28],16 µg/mL
